Data taken from ChEMBL document CHEMBL4706712, “Discovery and antitumor activity of Benzo[d]imidazol-containing 2,4-diarylaminopyrimidine analogues as ALK inhibitors with mutation-combating effects” (Bioorg Med Chem, 2021).

What was measured:
[1] = tested on: KARPAS-299; experiment: cells; settings: Homo sapiens, KARPAS-299, 72 h
Description: Antiproliferative activity against human KARPAS-299 cells assessed as reduction in cell growth measured after 72 hrs by MTT assay

[2] = tested on: A549; experiment: cells; settings: Homo sapiens, A549, 72 h
Description: Antiproliferative activity against human A549 cells assessed as reduction in cell growth measured after 72 hrs by MTT assay

[3] = tested on: NCI-H2228; experiment: cells; settings: Homo sapiens, NCI-H2228, 72 h
Description: Antiproliferative activity against human NCI-H2228 cells assessed as reduction in cell growth measured after 72 hrs by MTT assay

[4] = target: ALK tyrosine kinase receptor (Homo sapiens, UniProt Q9UM73); experiment: Inhibition of human N-terminal GST-fused ALK cytoplasmic domain (1058 to 1620 residues) expressed in baculovirus infected Sf21 insect cells using Srctide as substrate measured after 1 hr by mobility shift assay
Sequence of ALK tyrosine kinase receptor (Homo sapiens, UniProt Q9UM73) (Q9UM73 whole entry, the tested form may be a part): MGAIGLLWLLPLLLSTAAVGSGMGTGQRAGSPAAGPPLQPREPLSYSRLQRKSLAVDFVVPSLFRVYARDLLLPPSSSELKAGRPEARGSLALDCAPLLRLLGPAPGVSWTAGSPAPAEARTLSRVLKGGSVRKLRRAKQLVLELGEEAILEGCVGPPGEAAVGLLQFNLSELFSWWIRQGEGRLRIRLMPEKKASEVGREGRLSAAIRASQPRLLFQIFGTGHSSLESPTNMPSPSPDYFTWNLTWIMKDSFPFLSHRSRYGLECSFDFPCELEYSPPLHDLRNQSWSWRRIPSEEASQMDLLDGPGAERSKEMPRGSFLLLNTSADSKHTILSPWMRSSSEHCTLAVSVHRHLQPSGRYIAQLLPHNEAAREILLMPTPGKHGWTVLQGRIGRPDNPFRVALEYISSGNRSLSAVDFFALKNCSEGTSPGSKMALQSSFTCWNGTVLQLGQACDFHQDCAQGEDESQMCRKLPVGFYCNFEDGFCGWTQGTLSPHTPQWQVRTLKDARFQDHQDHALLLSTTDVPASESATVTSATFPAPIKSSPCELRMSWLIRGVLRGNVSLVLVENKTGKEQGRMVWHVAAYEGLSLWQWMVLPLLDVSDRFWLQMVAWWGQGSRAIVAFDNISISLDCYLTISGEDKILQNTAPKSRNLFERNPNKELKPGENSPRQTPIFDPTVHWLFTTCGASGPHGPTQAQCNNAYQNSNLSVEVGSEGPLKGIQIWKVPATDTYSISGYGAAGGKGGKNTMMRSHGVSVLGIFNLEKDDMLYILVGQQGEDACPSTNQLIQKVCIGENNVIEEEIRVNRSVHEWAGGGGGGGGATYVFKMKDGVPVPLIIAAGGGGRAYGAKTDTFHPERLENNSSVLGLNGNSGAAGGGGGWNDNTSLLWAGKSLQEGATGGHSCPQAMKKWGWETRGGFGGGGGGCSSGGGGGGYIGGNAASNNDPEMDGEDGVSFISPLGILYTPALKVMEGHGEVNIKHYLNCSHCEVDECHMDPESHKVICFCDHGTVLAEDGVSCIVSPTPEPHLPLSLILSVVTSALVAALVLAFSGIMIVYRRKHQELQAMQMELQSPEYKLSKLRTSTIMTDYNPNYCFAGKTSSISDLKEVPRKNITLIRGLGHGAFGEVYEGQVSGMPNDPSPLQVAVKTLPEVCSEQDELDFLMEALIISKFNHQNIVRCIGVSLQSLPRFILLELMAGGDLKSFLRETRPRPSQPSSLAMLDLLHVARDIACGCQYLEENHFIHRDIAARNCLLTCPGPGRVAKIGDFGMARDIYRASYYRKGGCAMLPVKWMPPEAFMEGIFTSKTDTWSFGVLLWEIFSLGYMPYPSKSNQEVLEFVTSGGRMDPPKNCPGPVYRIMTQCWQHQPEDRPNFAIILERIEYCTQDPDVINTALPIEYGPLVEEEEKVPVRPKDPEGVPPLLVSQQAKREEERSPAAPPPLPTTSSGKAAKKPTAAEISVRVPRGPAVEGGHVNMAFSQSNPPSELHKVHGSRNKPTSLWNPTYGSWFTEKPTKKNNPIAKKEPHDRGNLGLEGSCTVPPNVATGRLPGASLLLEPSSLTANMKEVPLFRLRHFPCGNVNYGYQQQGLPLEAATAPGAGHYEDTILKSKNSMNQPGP

[5] = target: ALK tyrosine kinase receptor (Homo sapiens, UniProt Q9UM73, L1196M); experiment: Inhibition of human N-terminal GST-fused ALK L1196M mutant cytoplasmic domain (1058 to 1620 residues) expressed in baculovirus infected Sf21 insect cells using Srctide as substrate measured after 1 hr by mobility shift assay
[6] = target: Epidermal growth factor receptor (Homo sapiens, UniProt P00533); experiment: Inhibition of N-terminal GST-tagged human EGFR cytoplasmic domain (669 to 1210 residues) expressed in baculovirus infected Sf21 insect cells using Srctide as substrate measured after 1 hr by mobility shift assay
Sequence of Epidermal growth factor receptor (P00533 whole entry, the tested form may be a part): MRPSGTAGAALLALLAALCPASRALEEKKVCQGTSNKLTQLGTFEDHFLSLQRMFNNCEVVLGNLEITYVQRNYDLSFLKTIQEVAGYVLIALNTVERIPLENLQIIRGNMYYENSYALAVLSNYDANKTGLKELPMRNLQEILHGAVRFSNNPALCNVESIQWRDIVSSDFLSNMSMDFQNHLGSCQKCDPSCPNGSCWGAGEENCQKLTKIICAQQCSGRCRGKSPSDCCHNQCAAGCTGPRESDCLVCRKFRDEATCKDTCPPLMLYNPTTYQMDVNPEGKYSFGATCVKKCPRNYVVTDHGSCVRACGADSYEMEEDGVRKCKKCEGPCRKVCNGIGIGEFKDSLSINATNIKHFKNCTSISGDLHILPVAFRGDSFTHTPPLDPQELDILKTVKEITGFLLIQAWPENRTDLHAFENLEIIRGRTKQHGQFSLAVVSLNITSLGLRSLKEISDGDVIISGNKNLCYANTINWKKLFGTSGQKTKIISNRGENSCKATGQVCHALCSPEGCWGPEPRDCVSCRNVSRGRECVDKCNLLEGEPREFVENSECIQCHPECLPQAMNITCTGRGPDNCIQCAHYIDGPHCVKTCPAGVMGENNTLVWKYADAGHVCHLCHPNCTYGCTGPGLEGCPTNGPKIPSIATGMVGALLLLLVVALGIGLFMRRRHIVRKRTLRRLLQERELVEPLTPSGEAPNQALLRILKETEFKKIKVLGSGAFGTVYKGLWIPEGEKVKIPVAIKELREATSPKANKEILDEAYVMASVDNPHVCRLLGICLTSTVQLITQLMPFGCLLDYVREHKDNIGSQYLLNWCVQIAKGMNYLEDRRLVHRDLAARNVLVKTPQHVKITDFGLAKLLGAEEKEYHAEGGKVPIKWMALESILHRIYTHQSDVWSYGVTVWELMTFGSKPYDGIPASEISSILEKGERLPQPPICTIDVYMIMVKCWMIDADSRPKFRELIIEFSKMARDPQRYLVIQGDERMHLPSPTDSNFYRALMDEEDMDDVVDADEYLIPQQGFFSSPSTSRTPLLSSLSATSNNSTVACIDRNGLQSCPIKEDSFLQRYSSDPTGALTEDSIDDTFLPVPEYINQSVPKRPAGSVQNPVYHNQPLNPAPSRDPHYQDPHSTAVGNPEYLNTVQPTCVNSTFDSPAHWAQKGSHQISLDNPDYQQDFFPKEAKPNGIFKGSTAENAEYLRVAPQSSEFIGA

[7] = target: T1, Receptor-type tyrosine-protein kinase FLT3 (Homo sapiens, UniProt P36888); experiment: Inhibition of N-terminal GST-tagged human FLT3 cytoplasmic domain (564 to 993 residues) expressed in baculovirus infected Sf21 insect cells using Srctide as substrate measured after 1 hr by mobility shift assay
T1 sequence (P36888 whole entry): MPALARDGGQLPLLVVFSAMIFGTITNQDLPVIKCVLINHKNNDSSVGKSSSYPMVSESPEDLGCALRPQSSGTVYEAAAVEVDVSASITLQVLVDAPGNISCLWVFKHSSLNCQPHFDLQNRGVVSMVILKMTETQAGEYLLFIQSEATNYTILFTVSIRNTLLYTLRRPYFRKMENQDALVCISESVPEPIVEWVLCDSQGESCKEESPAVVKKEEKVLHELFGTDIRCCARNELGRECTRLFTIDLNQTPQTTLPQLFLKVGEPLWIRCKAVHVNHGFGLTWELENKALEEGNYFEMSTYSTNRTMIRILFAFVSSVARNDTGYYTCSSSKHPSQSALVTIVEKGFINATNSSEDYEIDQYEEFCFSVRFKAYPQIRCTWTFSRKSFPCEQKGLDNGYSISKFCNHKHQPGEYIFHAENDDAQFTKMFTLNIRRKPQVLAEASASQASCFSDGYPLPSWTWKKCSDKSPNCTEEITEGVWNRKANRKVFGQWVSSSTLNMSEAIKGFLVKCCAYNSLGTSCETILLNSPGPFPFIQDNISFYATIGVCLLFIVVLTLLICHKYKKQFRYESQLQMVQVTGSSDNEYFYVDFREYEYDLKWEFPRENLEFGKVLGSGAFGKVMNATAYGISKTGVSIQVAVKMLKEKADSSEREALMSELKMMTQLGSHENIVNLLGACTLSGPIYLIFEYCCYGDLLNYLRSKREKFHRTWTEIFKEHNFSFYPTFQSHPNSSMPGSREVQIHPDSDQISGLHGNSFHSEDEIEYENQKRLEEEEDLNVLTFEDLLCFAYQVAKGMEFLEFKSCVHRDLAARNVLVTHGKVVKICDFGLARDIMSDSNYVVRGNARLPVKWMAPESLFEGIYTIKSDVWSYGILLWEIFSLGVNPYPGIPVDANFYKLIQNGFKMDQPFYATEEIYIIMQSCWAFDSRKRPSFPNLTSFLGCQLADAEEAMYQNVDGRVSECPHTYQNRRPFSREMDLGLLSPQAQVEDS

[8] = target: ALK tyrosine kinase receptor (Homo sapiens, UniProt Q9UM73, G1202R); experiment: Inhibition of human N-terminal GST-fused ALK G1202R mutant cytoplasmic domain (1058 to 1620 residues) expressed in baculovirus infected Sf21 insect cells using Srctide as substrate measured after 1 hr by mobility shift assay
Sequence of ALK tyrosine kinase receptor (Homo sapiens, UniProt Q9UM73, G1202R) (Q9UM73 19-1620 G1202R limits assumed): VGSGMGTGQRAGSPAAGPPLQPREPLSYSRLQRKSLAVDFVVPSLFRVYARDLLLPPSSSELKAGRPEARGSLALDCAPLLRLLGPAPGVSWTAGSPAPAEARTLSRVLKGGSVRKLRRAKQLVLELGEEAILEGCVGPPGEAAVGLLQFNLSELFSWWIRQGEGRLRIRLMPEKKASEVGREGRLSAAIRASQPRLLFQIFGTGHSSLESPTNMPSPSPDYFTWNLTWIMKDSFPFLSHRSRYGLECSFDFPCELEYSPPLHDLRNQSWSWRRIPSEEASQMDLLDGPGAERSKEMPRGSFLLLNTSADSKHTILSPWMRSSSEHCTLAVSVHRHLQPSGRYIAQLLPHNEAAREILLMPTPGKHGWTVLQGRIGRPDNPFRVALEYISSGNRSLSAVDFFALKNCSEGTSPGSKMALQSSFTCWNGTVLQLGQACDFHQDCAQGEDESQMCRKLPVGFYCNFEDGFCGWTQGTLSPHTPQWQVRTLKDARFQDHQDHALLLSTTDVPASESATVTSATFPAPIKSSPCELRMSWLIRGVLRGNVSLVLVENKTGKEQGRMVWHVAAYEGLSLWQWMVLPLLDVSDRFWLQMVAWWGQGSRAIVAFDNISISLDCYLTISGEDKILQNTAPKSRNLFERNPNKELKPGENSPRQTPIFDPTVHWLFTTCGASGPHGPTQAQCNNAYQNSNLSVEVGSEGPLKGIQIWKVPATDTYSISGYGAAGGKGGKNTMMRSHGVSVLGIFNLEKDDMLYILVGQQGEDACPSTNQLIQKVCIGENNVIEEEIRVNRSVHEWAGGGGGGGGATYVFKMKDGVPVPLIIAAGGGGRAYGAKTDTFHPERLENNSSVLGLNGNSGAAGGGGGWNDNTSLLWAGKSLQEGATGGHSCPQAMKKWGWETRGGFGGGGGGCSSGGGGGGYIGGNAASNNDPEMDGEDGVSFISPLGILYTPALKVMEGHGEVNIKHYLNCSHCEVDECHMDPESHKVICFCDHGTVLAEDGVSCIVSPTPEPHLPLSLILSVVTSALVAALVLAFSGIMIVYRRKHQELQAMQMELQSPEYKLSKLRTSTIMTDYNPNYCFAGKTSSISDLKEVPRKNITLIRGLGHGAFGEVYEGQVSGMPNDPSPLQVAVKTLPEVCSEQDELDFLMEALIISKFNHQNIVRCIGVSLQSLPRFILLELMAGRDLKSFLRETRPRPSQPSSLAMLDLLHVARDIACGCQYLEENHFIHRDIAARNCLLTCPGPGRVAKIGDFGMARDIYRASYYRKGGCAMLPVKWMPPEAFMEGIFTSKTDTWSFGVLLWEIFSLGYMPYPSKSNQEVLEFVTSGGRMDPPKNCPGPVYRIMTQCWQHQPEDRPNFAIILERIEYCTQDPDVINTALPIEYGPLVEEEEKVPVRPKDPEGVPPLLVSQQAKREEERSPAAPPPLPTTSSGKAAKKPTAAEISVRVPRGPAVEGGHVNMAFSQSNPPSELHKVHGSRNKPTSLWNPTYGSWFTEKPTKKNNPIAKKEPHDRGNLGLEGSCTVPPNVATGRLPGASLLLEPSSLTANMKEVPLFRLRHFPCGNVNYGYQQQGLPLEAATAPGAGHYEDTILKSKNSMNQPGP

Row | IC50 [1] | IC50 [2] | IC50 [3] | Structure (SMILES) | IC50 [4] | IC50 [5] | IC50 [6] | IC50 [7] | IC50 [8]
1 | 57 nM | 1.87 µM | 337 nM | CN(C)C(=O)c1ccccc1Nc1nc(Nc2ccc3nc(CN4CCCCC4)[nH]c3c2)ncc1Cl |  |  |  |  | 
2 | 1350 nM | > 10 µM | 2360 nM | CC(=O)Nc1ccccc1Nc1nc(Nc2ccc3nc(CN4CCN(CCO)CC4)[nH]c3c2)ncc1Cl |  |  |  |  | 
3 | 62 nM | 1.86 µM | 347 nM | CS(=O)(=O)Nc1ccccc1Nc1nc(Nc2ccc3nc(CN4CCCC4)[nH]c3c2)ncc1Cl |  |  |  |  | 
4 | 249 nM | > 10 µM | 1290 nM | CN(C)C(=O)c1ccccc1Nc1nc(Nc2ccc3nc(CN4CCN(CCO)CC4)[nH]c3c2)ncc1Cl |  |  |  |  | 
5 | 79 nM | > 10 µM | 1230 nM | CCN(CC)Cc1nc2ccc(Nc3ncc(Cl)c(Nc4ccccc4NS(C)(=O)=O)n3)cc2[nH]1 |  |  |  |  | 
6 | 1840 nM | > 10 µM | 3230 nM | CS(=O)(=O)Nc1ccccc1Nc1nc(Nc2ccc3nc(CN4CCSCC4)[nH]c3c2)ncc1Cl |  |  |  |  | 
7 | 1290 nM | 7.36 µM | 2350 nM | CN(C)C(=O)c1ccccc1Nc1nc(Nc2ccc3nc(CN4CCSCC4)[nH]c3c2)ncc1Cl |  |  |  |  | 
8 | 1030 nM | > 10 µM | 1720 nM | CS(=O)(=O)Nc1ccccc1Nc1nc(Nc2ccc3nc(CN4CCN(CCO)CC4)[nH]c3c2)ncc1Cl |  |  |  |  | 
9 | 798 nM | > 10 µM | 1070 nM | CS(=O)(=O)Nc1ccccc1Nc1nc(Nc2ccc3nc(CN4CCOCC4)[nH]c3c2)ncc1Cl |  |  |  |  | 
10 |  |  |  | CN1CCN(Cc2nc3ccc(Nc4ncc(Cl)c(Nc5ccccc5NS(C)(=O)=O)n4)cc3[nH]2)CC1 | 3.6 nM | 4.9 nM |  | 135 nM | 7 nM
11 | 77 nM | > 10 µM | 632 nM | CNC(=O)c1ccccc1Nc1nc(Nc2ccc3nc(CN4CCC(C)CC4)[nH]c3c2)ncc1Cl |  |  |  |  | 
12 | 79 nM | > 10 µM | 507 nM | CC(=O)Nc1ccccc1Nc1nc(Nc2ccc3nc(CN(C)C)[nH]c3c2)ncc1Cl |  |  |  |  | 
13 | 432 nM | > 10 µM | 1030 nM | CCN1CCN(Cc2nc3ccc(Nc4ncc(Cl)c(Nc5ccccc5NS(C)(=O)=O)n4)cc3[nH]2)CC1 |  |  |  |  | 
14 | 107 nM | > 10 µM | 230 nM | CC(=O)Nc1ccccc1Nc1nc(Nc2ccc3nc(CN4CCN(C)CC4)[nH]c3c2)ncc1Cl |  |  |  |  | 
15 | 193 nM | 6.03 µM | 975 nM | CC(=O)Nc1ccccc1Nc1nc(Nc2ccc3nc(CN4CCC(C)CC4)[nH]c3c2)ncc1Cl |  |  |  |  | 
16 | 1230 nM | 2.93 µM | 1450 nM | CCN(CC)Cc1nc2ccc(Nc3ncc(Cl)c(Nc4ccccc4C(=O)N(C)C)n3)cc2[nH]1 |  |  |  |  | 
17 | 136 nM | > 10 µM | 770 nM | CC1CCN(Cc2nc3ccc(Nc4ncc(Cl)c(Nc5ccccc5NS(C)(=O)=O)n4)cc3[nH]2)CC1 |  |  |  |  | 
18 | 391 nM | > 10 µM | 1310 nM | CNC(=O)c1ccccc1Nc1nc(Nc2ccc3nc(CN4CCN(CCO)CC4)[nH]c3c2)ncc1Cl |  |  |  |  | 
19 |  |  |  | CN1CCN(Cc2nc3ccc(Nc4ncc(Cl)c(Nc5ccccc5C(=O)N(C)C)n4)cc3[nH]2)CC1 | 2.7 nM | 3.8 nM |  | > 200 nM | 5.7 nM
20 | 62 nM | 4.79 µM | 338 nM | CNC(=O)c1ccccc1Nc1nc(Nc2ccc3nc(CN(C)C)[nH]c3c2)ncc1Cl |  |  |  |  | 
21 | 203 nM | > 10 µM | 583 nM | CCN1CCN(Cc2nc3ccc(Nc4ncc(Cl)c(Nc5ccccc5C(=O)N(C)C)n4)cc3[nH]2)CC1 |  |  |  |  | 
22 | 2010 nM | 5.37 µM | 3790 nM | CC(C)N(Cc1nc2ccc(Nc3ncc(Cl)c(Nc4ccccc4NS(C)(=O)=O)n3)cc2[nH]1)C(C)C |  |  |  |  | 
23 | 1290 nM | > 10 µM | 1300 nM | CS(=O)(=O)Nc1ccccc1Nc1nc(Nc2ccc3nc(CN4CCC(O)CC4)[nH]c3c2)ncc1Cl |  |  |  |  | 
24 | 833 nM | > 10 µM | 1270 nM | CN(C)C(=O)c1ccccc1Nc1nc(Nc2ccc3nc(CN4CCOCC4)[nH]c3c2)ncc1Cl |  |  |  |  | 
25 | 31 nM |  | 107 nM | Cc1cc(Nc2ncc(Cl)c(Nc3ccccc3S(=O)(=O)C(C)C)n2)c(OC(C)C)cc1C1CCNCC1 [CERITINIB] |  |  |  | 86.4 nM | 

Row | Structure (SMILES) | IC50 [1] | IC50 [2] | IC50 [3] | IC50 [4] | IC50 [5] | IC50 [6] | IC50 [7] | IC50 [8]
26 | CS(=O)(=O)Nc1ccccc1Nc1nc(Nc2ccc3nc(CN4CCCCC4)[nH]c3c2)ncc1Cl | 68 nM | 6.01 µM | 429 nM | 5.3 nM | 8.4 nM | > 1000 nM | 186 nM | 7.1 nM
27 | CN(C)C(=O)c1ccccc1Nc1nc(Nc2ccc3nc(CN4CCCC4)[nH]c3c2)ncc1Cl | 54 nM | > 10 µM | 291 nM | 3.4 nM | 5.3 nM | > 1000 nM | 103 nM | 13.3 nM
28 | CN(C)Cc1nc2ccc(Nc3ncc(Cl)c(Nc4ccccc4NS(C)(=O)=O)n3)cc2[nH]1 | 56 nM | 3.01 µM | 326 nM | 4 nM | 3.7 nM | > 1000 nM | > 200 nM | 8.2 nM
29 | CN(C)Cc1nc2ccc(Nc3ncc(Cl)c(Nc4ccccc4C(=O)N(C)C)n3)cc2[nH]1 | 47 nM | > 10 µM | 127 nM | 3.2 nM | 3.8 nM | > 1000 nM | > 200 nM | 6.9 nM
